Test results published in patent US4707497A, “Phenylethanolaminotetralines, a process for their preparation and pharmaceutical compositions containing them” (Sanofi, priority 1985, dated 1987).
Structures can show the parent of a compound that is named as a salt.

How the values were obtained:
[1] = system: adipocytes of the interscapular brown adipose tissue; test: Lipolytic activity in vitro on brown adipose tissue (BAT) adipocytes, release of free fatty acids; type: cell-based; conditions: Rattus norvegicus, Adipocyte; compound 10^-6 M; per cent of noradrenaline effect at 5.10^-6 M (maximal effect); 37° C., 1 hour, pH 7.4
Text: (§1) More particularly, the compounds of the present invention show a remarkable lipolytic activity in mammals in the tests predictive of said activity, such as in the test "in vitro" on the brown adipose tissue (BAT) and on the white adipose tissue (WAT) and in the test "in vivo", based upon the thermogenesis in the rat. More particularly, in the test "in vitro" male rats, each weighing 100-125 g, are sacrificed and the adipocytes of the interscapular brown adipose tissue and those of the epididymal white adipose tissue are dissected out, according to the method of M. Rodbell, J. Biol. Chem. 1967, 242, 5744-5750 and separately treated as follows. The adipocytes are incubated with the compound to be tested at a temperature of 37° C. for an hour in Phosphate Krebs-Ringer-(4%) albumine medium at pH 7.4. The long chain fatty acids that are released in the medium are determinated by the method reported by D.I. Trout and al., J. Lip. Res. 1960, 1, 199-202, and compared with the amount of the triglycerides present in the adipocytes, determined by the method of E. Van Handel and al., J. Lab. Clin. Med., 1957, 50, 152-157. The results obtained for representative compounds of the present invention are shown in TABLE I, where the lipolytic activity of the compounds at the dose of 10^-6 M, measured as release of free fatty acids (μEq), is expressed as per cent of the noradrenaline effect at the dose of 5.10^-6 M (maximal effect on both BAT and WAT).

[2] = system: epididymal white adipose tissue adipocytes; test: Lipolytic activity in vitro on white adipose tissue (WAT) adipocytes, release of free fatty acids; type: cell-based; conditions: Rattus norvegicus, Adipocyte; compound 10^-6 M; per cent of noradrenaline effect at 5.10^-6 M (maximal effect); 37° C., 1 hour, pH 7.4
Text: as §1

interscapular BAT = test: Activity on brown adipose tissue thermogenesis in vivo in anaesthetized rats; set-up: species or system rat; conditions: 7.5 mg/kg intraperitoneally
Procedure: In the test "in vivo", the activity on brown adipose tissue thermogenesis is determined by the method reported by P. J. Wellman, Research Communication in Chemical Pathology and Pharmacology 1983, 41, 173-176.
The anaesthesied rats are treated intraperitoneally with the vehicle and 7.5 mg/kg of the compound to be tested. The interscapular BAT and rectal temperatures are recorded 10, 20 and 30 minutes after the injection.

mice = test: Acute toxicity in mice; type: in vivo, mouse; conditions: oral dose up to 200 mg/kg

Compound | activation at 1 µM [1] [%] | activation at 1 µM [2] [%] | ΔT, average difference between interscapular BAT temperature and rectal temperature (interscapular BAT; 10' after injection, anaesthetized rats (vehicle 0.06 ± 0.04)) [°C] | ΔT, average difference between interscapular BAT temperature and rectal temperature (interscapular BAT; 20' after injection, anaesthetized rats (vehicle 0.10 ± 0.04)) [°C] | ΔT, average difference between interscapular BAT temperature and rectal temperature (interscapular BAT; 30' after injection, anaesthetized rats (vehicle 0.14 ± 0.05)) [°C] | mortality (mice)
Oc1ccc2c(c1)CC(NC[C@H](O)c1ccccc1)CC2 (single isomer, unassigned; (+)) [SR 58375A, hydrochloride] | 100 | 97 |  |  |  | 
COc1ccc2c(c1)CC(NCC(O)c1cccc(Cl)c1)CC2 (stereo not shown) [SR 58338A, 2-[(7-methoxy-1,2,3,4-tetrahydronaphth-2-yl)amino]-1-(3-chloropheny)ethanol hydrochloride] | 77 | 89 |  |  |  | 
Oc1ccc2c(c1)CC(NCC(O)c1ccccc1)CC2 (stereo not shown) [SR 58306, 2-[(7-hydroxy-1,2,3,4-tetrahydronaphth-2-yl)amino]-1-phenylethanol] |  |  | 0.60 ± 0.10 | 0.90 ± 0.10 | 0.92 ± 0.08 | 
Cl.Oc1ccc2c(c1)CC(NCC(O)c1cccc(Cl)c1)CC2 (stereo not shown) [SR 58339A, 2-[(7-hydroxy-1,2,3,4-tetrahydronaphth-2-yl)amino]-1-(3-chlorophenyl)-ethanol hydrochloride] | 103 | 92 |  |  |  | do not cause any mortality
Oc1ccc2c(c1)CC(NC[C@H](O)c1ccccc1)CC2 (stereo partly drawn) [SR 58365A, (1R,2'RS)-2-[(7-hydroxy-1,2,3,4-tetrahydronaphth-2-yl)amino]-1-phenylethanol hydrochloride] | 96 | 78 |  |  |  | 
COc1ccc2c(c1)CC(NCC(O)c1ccccc1)CC2 (stereo not shown) [SR 58279A, 2-[(7-methoxy-1,2,3,4-tetrahydronaphth-2-yl)amino]-1-phenylethanol hydrochloride] | 50 | 30 |  |  |  | 
CCOC(=O)COc1ccc2c(c1)CC(NCC(O)c1cccc(Cl)c1)CC2.O=C(O)C(=O)O (stereo not shown) [SR 58380A, 2-[(7-carbethoxymethoxy-1,2,3,4-tetrahydronaphth-2-yl)amino]-1-(3-chlorophenyl)ethanol oxalate] | 96 | 90 |  |  |  | do not cause any mortality
Oc1ccc2c(c1)CC(NCC(O)c1ccccc1)CC2 (stereo not shown) [SR 58306A, 2-[(7-hydroxy-1,2,3,4-tetrahydronaphth-2-yl)amino]-1-phenylethanol hydrochloride] | 80 | 78 |  |  |  | 
